Measurements: PubChem BioAssay (NCI)
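These data come from cells grown in 96-well plates and exposed to compound for 48 hours at five concentrations. The concentration for full growth arrest is given as TGI.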 Where a SMILES comes first, the peptide text is derived from it. [ ]: non-standard residue; d: D form. The star is where a group is joined. ξ: configuration not given here. ξD = NC(CC(=O)O)C(=O)O; Boc = CC(C)(C)OC(=O)*; Aib = CC(C)(N)C(=O)O; OBn = c1ccc(CO*)cc1

Legend:
Assay in all cases: NCI anticancer screen, dose series, 48 h
DU-145 prostate = tested on: DU-145 prostate
HOP-62 NSCLC = tested on: HOP-62 NSCLC
OVCAR-5 ovarian = tested on: OVCAR-5 ovarian
MDA-MB-435 = tested on: MDA-MB-435
MDA-MB-231 breast = tested on: MDA-MB-231 breast
CCRF-CEM leukemia = tested on: CCRF-CEM leukemia
M14 melanoma = tested on: M14 melanoma
MALME-3M melanoma = tested on: MALME-3M melanoma
OVCAR-8 ovarian = tested on: OVCAR-8 ovarian
T-47D breast = tested on: T-47D breast
OVCAR-4 ovarian = tested on: OVCAR-4 ovarian
SN12C renal = tested on: SN12C renal
UACC-62 melanoma = tested on: UACC-62 melanoma
HCT-116 colon = tested on: HCT-116 colon
HOP-92 NSCLC = tested on: HOP-92 NSCLC
PC-3 prostate = tested on: PC-3 prostate
RPMI-8226 leukemia = tested on: RPMI-8226 leukemia
NCI-H226 lung = tested on: NCI-H226 lung
NCI-H23 lung = tested on: NCI-H23 lung
SK-MEL-2 melanoma = tested on: SK-MEL-2 melanoma

Row | SMILES | TGI (DU-145 prostate) | TGI (HOP-62 NSCLC) | TGI (OVCAR-5 ovarian) | TGI (MDA-MB-435) | TGI (MDA-MB-231 breast) | TGI (CCRF-CEM leukemia) | TGI (M14 melanoma) | TGI (MALME-3M melanoma) | TGI (OVCAR-8 ovarian) | TGI (T-47D breast) | TGI (OVCAR-4 ovarian) | TGI (SN12C renal) | TGI (UACC-62 melanoma) | TGI (HCT-116 colon) | TGI (HOP-92 NSCLC) | TGI (PC-3 prostate) | TGI (RPMI-8226 leukemia) | TGI (NCI-H226 lung) | TGI (NCI-H23 lung) | TGI (SK-MEL-2 melanoma)
1 | Cn1cc(NC(=O)Nc2cc(C(=O)Nc3cc(C(=O)Nc4ccc5cc(S(=O)(=O)O)cc(S(=O)(=O)O)c5c4)n(C)c3)n(C)c2)cc1C(=O)Nc1cc(C(=O)Nc2ccc3cc(S(=O)(=O)O)cc(S(=O)(=O)O)c3c2)n(C)c1 | > 100 µM | > 100 µM | > 100 µM | > 100 µM | > 100 µM | > 100 µM | > 100 µM | > 100 µM | > 100 µM | > 100 µM | > 100 µM | > 100 µM | > 100 µM | > 100 µM | > 100 µM | > 100 µM | > 100 µM | > 100 µM | > 100 µM | –
2 | CCCC(=O)OCC1OC(n2cc(F)c(=O)[nH]c2=O)C(F)C1O (stereo not given) | > 67.1 µM | > 100 µM | > 100 µM | > 100 µM | > 100 µM | > 100 µM | > 100 µM | > 100 µM | > 100 µM | > 100 µM | > 100 µM | > 100 µM | > 100 µM | > 100 µM | > 100 µM | > 100 µM | > 100 µM | > 100 µM | > 100 µM | > 100 µM
3 | O=C(C[C@@H]1CCCN2CCCC[C@H]12)N1c2ccccc2Sc2ccc(Cl)cc21 | 28.2 µM | 26 µM | 26.4 µM | 29.3 µM | 28.4 µM | 35.1 µM | 17.9 µM | 31.2 µM | 37.2 µM | 39.5 µM | – | 32.1 µM | – | 29.5 µM | – | 27.2 µM | 54.8 µM | 46 µM | 29.1 µM | –
4 | N#Cc1ccc(C2ON=C(c3ccccc3)N2C23CC4CC(CC(C4)C2)C3)cc1 (stereo not given) | > 10 µM | > 10 µM | > 10 µM | > 10 µM | > 10 µM | > 10 µM | > 10 µM | > 10 µM | > 10 µM | > 10 µM | > 10 µM | > 10 µM | > 10 µM | > 10 µM | > 10 µM | > 10 µM | > 10 µM | > 10 µM | > 10 µM | > 10 µM
5 | Cc1nc2ccc(Cl)cc2c2c1CCN2c1ccc(F)cc1 | > 100 µM | > 100 µM | > 100 µM | 63.6 µM | 81.3 µM | > 100 µM | 51.7 µM | 82 µM | > 100 µM | > 100 µM | > 100 µM | > 100 µM | 87.4 µM | > 100 µM | – | > 100 µM | 65.1 µM | 88.8 µM | > 100 µM | > 100 µM
6 | CSc1nc(-c2ccccc2)[nH]c(=O)n1 | > 100 µM | > 100 µM | > 100 µM | > 100 µM | > 100 µM | > 100 µM | > 100 µM | > 100 µM | > 100 µM | > 100 µM | > 100 µM | > 100 µM | > 100 µM | > 100 µM | > 100 µM | > 100 µM | > 100 µM | > 100 µM | > 100 µM | > 100 µM
7 | C/C(O)=C(/C=N/C(=S)Nc1ccccc1)C(=O)Nc1ccccc1C | > 100 µM | > 100 µM | > 100 µM | > 100 µM | > 100 µM | > 100 µM | > 100 µM | > 100 µM | > 100 µM | > 100 µM | > 100 µM | > 100 µM | > 100 µM | > 100 µM | > 100 µM | > 100 µM | > 100 µM | > 100 µM | > 100 µM | > 100 µM
8 | O=C1c2ccccc2CC12Cc1cc3c(cc1C2)CCC3 | > 100 µM | > 100 µM | > 100 µM | > 100 µM | > 100 µM | > 100 µM | 94.1 µM | 76.2 µM | > 100 µM | > 100 µM | > 100 µM | > 100 µM | – | > 100 µM | > 100 µM | > 100 µM | > 100 µM | > 100 µM | > 100 µM | > 100 µM
9 | CC(C)(C)OC(=O)NC(CC(=O)OCc1ccccc1)C(=O)NC(C)(C)C(N)=O (stereo not given) (Boc-[ξD](OBn)-[Aib]-NH2) | > 100 µM | > 100 µM | > 100 µM | > 100 µM | > 100 µM | > 100 µM | > 100 µM | > 100 µM | > 100 µM | > 100 µM | > 100 µM | > 100 µM | > 100 µM | > 100 µM | > 100 µM | > 100 µM | > 100 µM | > 100 µM | > 100 µM | > 100 µM
10 | CC(NNC(=O)c1ccncc1)c1ccccc1 (stereo not given) | > 100 µM | > 100 µM | > 100 µM | > 100 µM | > 100 µM | > 100 µM | > 100 µM | > 100 µM | > 100 µM | > 100 µM | > 100 µM | > 100 µM | > 100 µM | > 100 µM | > 100 µM | > 100 µM | > 100 µM | > 100 µM | > 100 µM | > 100 µM
11 | COC(=O)C1(Cc2ccccc2)Cc2ccccc2C1O (stereo not given) | > 100 µM | > 100 µM | > 100 µM | > 100 µM | > 100 µM | > 100 µM | – | > 100 µM | > 100 µM | > 100 µM | > 100 µM | > 100 µM | > 100 µM | > 100 µM | – | > 100 µM | > 100 µM | > 100 µM | > 100 µM | –
12 | O=C(N/C(=C\c1ccccc1)c1nc2ccccc2c(=O)o1)c1ccccc1 | > 100 µM | > 100 µM | > 100 µM | > 100 µM | > 71.9 µM | > 100 µM | > 100 µM | > 100 µM | > 100 µM | > 100 µM | > 100 µM | > 100 µM | > 100 µM | > 100 µM | > 100 µM | > 100 µM | > 100 µM | > 100 µM | > 100 µM | > 100 µM
